Test results from ChEMBL document CHEMBL1157539, “Thousands of chemical starting points for antimalarial lead identification” (Nature, 2010).

System: Plasmodium falciparum
Test: GSK_TCMDC: Inhibition of Plasmodium falciparum 3D7 in whole erythrocytes, using parasite LDH activity as an index of growth.
Assay type: functional, organism-based

SMILES | XC50 (Plasmodium falciparum, 3D7) [nM] | XC50 [nM]
FC(F)(F)COc1c(CCNCCCCNCCc2ccc3ccccc3c2OCC(F)(F)F)ccc2ccccc12 | 348 | 
O=C(NC1CCCCC1)C(c1cccs1)N(CCc1ccccc1)C(=O)c1ccco1 (stereo unspecified) | 1040 | 
Cc1nc(SCC(=O)N2CCCC2=O)c2c(C)c(C)sc2n1 | 170 | 
COc1ccc2nccc([C@@H](O)CN3CCC(NC(=O)c4ccc(-c5ccc(C#N)cc5)cc4)CC3)c2c1 | 164 | 
Fc1ccc2[nH]c(-c3ccc(-c4ccc(CNCCc5ccncc5)cc4)s3)nc2c1 | 142 | 
CCNc1cc(C)nc(Nc2ccc(NC(=O)c3ccc(OC)c(OC)c3)cc2)n1 | 1070 | 
Cc1[nH]c2ccc(NS(C)(=O)=O)cc2c1C1CCN(CC2CCN(C(=O)/C=C/c3ccc(Cl)c(Cl)c3)CC2)CC1 | 684 | 
COc1ccc(NC(=O)NC2CCN(CCCCCNC(=O)/C=C/c3ccc(Cl)c(Cl)c3)C2)c(OC)c1 (stereo unspecified) | 823 | 
C(=C(c1cccs1)c1cccs1)c1ccc(CNC2CCN(Cc3ccccc3)CC2)cc1 | 161 | 
Cc1ccc(NC(=O)N2CCN(CCCCCNC(=O)/C=C/c3ccc(Cl)c(Cl)c3)CC2)cc1C | 1100 | 
CCc1nnc2sc(-c3cccc(NC(=O)c4ccc(OC)c(Cl)c4)c3)nn12 | 1140 | 
COc1ccc2ncc(F)c([C@@H](O)CN3CCC(NCc4cc(C#N)c5c(c4)CCO5)CC3)c2n1 | 889 | 
CC(C)CCNC(=O)C1Cc2c([nH]c3ccc(Br)cc23)C2(CCN(CCc3ccccc3)CC2)N1 (stereo unspecified) | 688 | 
CCN1CCC(N(Cc2ccc(-c3ccc(C(F)(F)F)cc3)cc2)C(=O)CCCCn2c(CCc3cccc(F)c3F)nc(=O)c3ccccc32)CC1 | 989 | 
O=C(NCC1CCN(CCN2CCc3ccc4c(c3C2)OCO4)CC1)c1ccc(-c2ccc(C(F)(F)F)cc2)cc1 | 861 | 
Cc1cccc(C(=O)Nc2ccnc(N(C)C3CCN(Cc4cccc(O)c4)CC3)c2)c1 | 944 | 
FC(F)(F)c1ccc2c(NCCc3ccccc3)ccnc2c1 | 1270 | 
COc1cc(CNC[C@@H](O)[C@H](Cc2ccccc2)NC(=O)c2cc(OC(C)C)cc(N3CCCS3(=O)=O)c2)cc(OC)c1 | 798 | 
Cc1nn(-c2ccccc2)c2sc(C(=O)N(CCCN(C)C)c3nc(-c4ccccc4)cs3)cc12 | 981 | 
COc1ccc(Nc2ncc(OC)c(Nc3ccccc3C(N)=O)n2)cc1N1CCN(C)CC1 | 740 | 
O=C(Nc1cccc(C(F)(F)F)c1)c1cccc(S(=O)(=O)NCC2CCCN2CC2CCCCC2)c1 (stereo unspecified) | 1110 | 
COC(=O)c1cccc(NC(=O)NC2CCN(c3ccnc(Nc4ccc(OC)cc4)n3)C2)c1 (stereo unspecified) | 472 | 

SMILES | XC50 (Plasmodium falciparum, 3D7) [nM] | XC50 [nM]
Cc1cccc(Cn2ccc3c4c(N)nc(N)nc4ccc32)c1 | 7.35 | 
COc1cccc(CNC[C@@H](O)[C@H](Cc2ccccc2)NC(=O)c2cc(N3CCCC3=O)c3[nH]cc(C(C)C)c3c2)c1 | 529 | 
Cc1cccc(C)c1N1CCN(C2CCC(NC(=O)c3cc4ccccc4[nH]3)CC2)CC1 (stereo unspecified) | 601 | 
Cc1ccc2c(c1)nc(N)n2C[C@H](O)c1ccccc1 | 582 | 
N=C(N)c1ccc2[nH]c(SCc3ccccc3)nc2c1 | 687 | 
O=C(/C=C/c1ccc(Br)cc1)NCCCCCN1CCC(c2c[nH]c3ccccc23)CC1 | 724 | 
Cc1cccc2nc(-c3cccc(-c4cccc(NC(=O)CC5NC(=O)c6ccccc65)c4)c3)[nH]c12 (stereo unspecified) | 1030 | 
O=C(Nc1ccc2c(c1)CCN2C1CCN(Cc2ccc(O)cc2)C1)c1ccco1 (stereo unspecified) | 897 | 
O=S(=O)(c1cccc2cccnc12)N1CCN(C2CCCCC2)CC1 | 765 | 
O=C(Nc1cc(C(F)(F)F)cc(C(F)(F)F)c1)N1CCC(CCN2CCC(c3c[nH]c4ccccc34)CC2)CC1 | 1260 | 
CN(Cc1ccc(C#N)cc1)C1CCN(c2cc(NC(=O)c3cccc(F)c3)ccn2)CC1 | 1750 | 
Cc1cc(Br)cnc1CCCCNC1=NC(=O)CN1C | 366 | 
O=C(O)c1cccc2c(-c3ccncc3)cccc12 | 937 | 
COc1cccc(-c2cc(C(F)(F)F)n3ncc(C(=O)Nc4cc(C)ccc4O)c3n2)c1 | 159 | 
COc1ccc2ncc(Cl)c(CCN3C[C@H](CNCc4ccc5c(n4)NC(=O)CS5)[C@H](O)C3)c2n1 | 1000 | 
Cc1ccccc1C1CCN(C2CCC(NC(=O)c3cc4cc(C(C)C)ccc4[nH]3)CC2)CC1 (stereo unspecified) | 695 | 
Cc1ccc2[nH]c(-c3cc(-c4cccc(C#N)c4)cnc3N)nc2c1 | 117 | 
O=C(Nc1cccc(-c2cccc(CN3CCCC3)c2)c1)c1ccc(Cl)cc1 | 684 | 
CC(C(=O)N1CCCC1)N1CCN(C(c2ccccc2)c2ccccc2)CC1 (stereo unspecified) | 1100 | 
O=C(O)c1ccc(OCOCOc2ccc(C(=O)O)c(O)c2)cc1O | 190 | 
O=C(CCNc1ccnc(NCCc2ccccc2)n1)Nc1ccccc1 | 836 | 
c1cc(-c2ccc(CN3CCCCC3)cc2)cc(-c2nc3ccccc3[nH]2)c1 | 585 | 

SMILES | XC50 (Plasmodium falciparum, 3D7) [nM] | XC50 [nM]
c1ccc(CN2CCCN(c3ccc4c(c3)CCN(Cc3ccc(-c5ncc[nH]5)cc3)CC4)CC2)cc1 | 762 | 
C[C@@H](Oc1cc(-n2cnc3ccc(OCC4CCN(S(C)(=O)=O)CC4)cc32)sc1C(N)=O)c1ccccc1C(F)(F)F | 1020 | 
COc1ccc2nccc([C@@H](O)CN3CCC(NC(=O)/C=C/c4cc(F)cc(NC(C)=O)c4)CC3)c2c1 | 183 | 
Cc1ccccc1Nc1nc(Nc2ccccc2)c2ccccc2n1 | 998 | 
CN(CCCCCNC(=O)/C=C/c1ccc(Cl)c(Cl)c1)CCCCc1c[nH]c2ccccc12 | 1080 | 
Cc1ccc(-n2c(=O)c3cccnc3n2CC(=O)Nc2cccc(C)c2C)cc1 | 865 | 
O=C(/C=C/c1ccccc1Cl)NC1CCC(CN2C3CCC2CC(c2c[nH]c4ccccc24)C3)CC1 (stereo unspecified) | 706 | 
CCOC(=O)c1ccc(NC(=O)Nc2ccc(-c3ccc(-c4nc5cc(C(F)(F)F)ccc5[nH]4)cc3)cc2)cc1 | 273 | 
CC(=O)c1ccc(-c2cccc3c(CC(=O)Nc4ccc5nccc(N6CCN(C)CC6)c5c4)cccc23)cc1 | 498 | 
CNC(=O)c1ccccc1Nc1nc(Nc2ccc(N3CCOCC3)cc2)ncc1Cl | 727 | 
CC(C(=O)N1CCCC1)N1CCN(S(=O)(=O)c2ccc(C(C)(C)C)cc2)CC1 (stereo unspecified) | 636 | 
O=S(=O)(Nc1cccc(CCN2CCC(N3CCCCC3)CC2)c1)c1cccc2ccccc12 | 937 | 
CN(C)S(=O)(=O)n1ccc2c3c(N)nc(N)nc3ccc21 | 45.9 | 
Cc1cc(NC(=O)c2ccco2)ccc1OC1CCN(Cc2ccc(F)cc2)C1 (stereo unspecified) | 644 | 
CCCCCCCC/C=C\CCCCCCCC(=O)NCc1ccc(O)c(OC)c1 [OLVANIL] | 402 | 
Cc1ccc(-c2ccn(Cc3cccc(OCc4ccccc4)c3)n2)cn1.Cc1ccc(-c2ccnn2Cc2cccc(OCc3ccccc3)c2)cn1 | 1180 | 
Cc1cccc(C(=O)NC(NC(=S)Nc2cc(Cl)ccc2Cl)C(Cl)(Cl)Cl)c1 (stereo unspecified) | 1270 | 
CCOc1cc2c(cc1S(=O)(=O)c1ccc(COc3ccc(C(F)(F)F)cc3)cc1)CCN(C)CC2 | 1020 | 
O=C(Nc1ccc2c(c1)CCN2C1CCN(Cc2cccc(C(F)(F)F)c2)C1)c1ccco1 (stereo unspecified) | 564 | 
CCCCNC(=O)[C@H](Cc1ccccc1)NC(=O)c1ccc(O)c(-c2ccc(Cl)c(Cl)c2)c1 | 527 | 
NS(=O)(=O)Cc1cccc(-c2ccnc3ccc(-c4cccc(S(N)(=O)=O)c4)cc23)c1 | 1560 | 
Cc1ccc(NC(=O)C(C)Sc2nnc(-c3ccccc3Br)[nH]2)cc1 (stereo unspecified) | 1090 | 

SMILES | XC50 (Plasmodium falciparum, 3D7) [nM] | XC50 [nM]
CCN(CC)Cc1cccc(-c2cc3c(-c4ccc(C(=O)O)c(C(C)C)c4)ccnc3[nH]2)c1OC | 323 | 
CN(C)S(=O)(=O)n1ncc2c3c(N)nc(N)nc3ccc21 | 178 | 
CC1CNC(c2cccc(NC(=O)Nc3cccc(C4=NC(C)CN4)c3)c2)=N1 (stereo unspecified) | 359 | 
Cc1nc(C)c(-c2ccc(Oc3ccc(OC(F)(F)F)cc3)cc2)c(O)c1I | 128 | 
CN(C)CCNCc1cccc(-c2ccc3c(Nc4ccc(F)cc4Cl)ccnc3c2)c1 | 809 | 
C=CCOc1ccc(C2C(C(=O)OC)=C(C)NC3=C2C(=O)c2ccccc23)cc1OC (stereo unspecified) | 877 | 
COc1c(O)cc2oc(-c3ccc(O)cc3)cc(=O)c2c1O [HISPIDULIN] | 771 | 
Cc1cc(N2Cc3ccccc3C2)nc(Nc2cccc(C#N)c2)n1 | 172 | 
CCN(CC)CCOc1cc2c(cc1Br)-c1cc(Br)c(OCCN(CC)CC)cc1C2=NO | 1090 | 
CCOC(=O)c1c(CCc2ccc(C(F)(F)F)cc2)nc2c(c1-c1ccc(C(=O)N[C@@H](C)c3ccncc3)cc1)C(=O)N1CCC[C@@H]21 | 924 | 
CCN(C1CCCCC1)S(=O)(=O)c1ccc(OC)c(N2CCN(C(=O)C(Cl)(Cl)Cl)CC2)c1 | 635 | 
COc1c(I)cc(Cc2cnc(N)nc2N)cc1I | 930 | 
O=C(C=CC(=O)N1CCCCC1)NCc1ccccc1 | 732 | 
O=C(/C=C/c1cccc(Cl)c1)NC1CCC(CN2CCC(c3c[nH]c4ccccc34)CC2)CC1 (stereo unspecified) | 752 | 721
Cc1ccc2[nH]c(C)cc(=NN=Cc3cccc(F)c3)c2c1 | 631 | 
O=S1(=O)NCc2ccc(Nc3nccc(Nc4ccc5c(cnn5Cc5ccccc5)c4)n3)cc21 | 750 | 
COC(=O)c1ccc(N2CCN(CCCCNC(=O)c3ccc(NC(=O)c4ccc(Cl)cc4)cc3)CC2)c(OC)c1 | 1300 | 
c1ccc(COc2ccc(C3CCCCC3)cc2)nc1 | 774 | 
O=C(NCC1CCN(CCN2CCC(c3cn(CCO)c4ccccc34)CC2)CC1)c1ccc(-c2ccc(C(F)(F)F)cc2)cc1 | 438 | 
